Results on one compound are retold here after PMC9169222, “Impedance-Based Phenotypic Readout of Transporter Function: A Case for Glutamate Transporters” (Frontiers in Pharmacology, 2022).

Each structure is given as a SMILES string. Counter-ions that a name gives are not always drawn. Like-named read-outs stand apart in the source and are kept apart here.

One test deals with EAAT1-3. Conditions: read-out: Steady-state affinities (Km), ref Arriza et al., 1994, Tzingounis and Wadiche, 2007; cited from earlier work.
Test [1] concerns the target T1, EAAT4 (JumpIn-EAAT4 cells) (Homo sapiens, UniProt P48664).
T1 construct: expressed in transfected cells; host or cells: Jump In T-REx HEK 293
T1 sequence (P48664 1-564): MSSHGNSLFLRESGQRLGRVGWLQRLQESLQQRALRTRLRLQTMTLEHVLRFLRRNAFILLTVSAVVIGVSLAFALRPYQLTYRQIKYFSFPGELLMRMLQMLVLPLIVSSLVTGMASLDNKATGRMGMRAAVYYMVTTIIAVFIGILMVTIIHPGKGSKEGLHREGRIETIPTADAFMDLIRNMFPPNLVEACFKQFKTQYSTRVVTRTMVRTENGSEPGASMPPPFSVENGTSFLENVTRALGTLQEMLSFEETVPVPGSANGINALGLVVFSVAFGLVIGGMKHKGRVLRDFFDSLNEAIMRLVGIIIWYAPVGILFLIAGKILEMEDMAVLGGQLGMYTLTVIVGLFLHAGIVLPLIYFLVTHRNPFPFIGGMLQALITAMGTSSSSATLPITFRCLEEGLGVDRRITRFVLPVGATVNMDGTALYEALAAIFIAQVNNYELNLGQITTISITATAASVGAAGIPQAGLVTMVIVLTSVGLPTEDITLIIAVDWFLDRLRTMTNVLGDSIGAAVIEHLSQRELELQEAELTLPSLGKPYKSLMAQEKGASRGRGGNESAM
As to the kind of experiment: Impedance-based phenotypic assay on JumpIn-EAAT4 cells. Conditions: JumpIn-EAAT4, 1 mM L-glu, p = 0.093. Format: cell-based. The protocol:
Label-free whole-cell assays, based on cell-induced changes in impedance, were performed using the xCELLigence real-time cell analyzer (RTCA) system (ACEA Biosciences, San Diego, CA, United States) as described previously ([Vlachodimou et al., 2019]; [Sijben et al., 2021a], [2021b]). In short, cells are cultured in medium on gold-plated electrodes in microwell E-plates. Per well impedance is continuously measured at 10 kHz and is converted to the unitless parameter Cell Index (CI) by the following formula: CI=(Zi−Z0)Ω/15Ω where Zi is the impedance at any given time point and Z0 is the baseline impedance measured at the start of each experiment ([Kho et al., 2015]).
Assays were performed at 37°C and 5% CO2 in 96-well PET E-plates in a total volume of 100 µl per well. Prior to cell seeding, the baseline impedance (Z0) was measured in the recording station in 40 µl (two compound additions) or 45 µl (one compound addition) medium in the presence (+) or absence (−) of 1 μg/ml dox. […]
On the day of the experiment, JumpIn-EAAT cells grown to 70–80% confluence were trypsinized (0.25% trypsin in PBS/EDTA), counted and seeded in the E-plate in a volume of 50 μl at 60,000 cells/well. […] Cell growth was recorded overnight for 22 h. […] After stimulation the impedance was measured for at least 2 h. […]
Experimental data was recorded using RTCA Software v2.0 or v2.1.1 (ACEA Biosciences). […]

For test [2], the target named is T2, EAAT2 (JumpIn-EAAT2 cells) (Homo sapiens, UniProt P43004).
T2 construct: expressed in transfected cells; host or cells: Jump In T-REx HEK 293
Description: Impedance-based phenotypic assay (xCELLigence) on JumpIn-EAAT2 cells. To be noted: net AUC 0–120 min, read-out: Substrate pEC50 ± SEM (converted). Type of test: cell-based.

T2 sequence (P43004 whole entry): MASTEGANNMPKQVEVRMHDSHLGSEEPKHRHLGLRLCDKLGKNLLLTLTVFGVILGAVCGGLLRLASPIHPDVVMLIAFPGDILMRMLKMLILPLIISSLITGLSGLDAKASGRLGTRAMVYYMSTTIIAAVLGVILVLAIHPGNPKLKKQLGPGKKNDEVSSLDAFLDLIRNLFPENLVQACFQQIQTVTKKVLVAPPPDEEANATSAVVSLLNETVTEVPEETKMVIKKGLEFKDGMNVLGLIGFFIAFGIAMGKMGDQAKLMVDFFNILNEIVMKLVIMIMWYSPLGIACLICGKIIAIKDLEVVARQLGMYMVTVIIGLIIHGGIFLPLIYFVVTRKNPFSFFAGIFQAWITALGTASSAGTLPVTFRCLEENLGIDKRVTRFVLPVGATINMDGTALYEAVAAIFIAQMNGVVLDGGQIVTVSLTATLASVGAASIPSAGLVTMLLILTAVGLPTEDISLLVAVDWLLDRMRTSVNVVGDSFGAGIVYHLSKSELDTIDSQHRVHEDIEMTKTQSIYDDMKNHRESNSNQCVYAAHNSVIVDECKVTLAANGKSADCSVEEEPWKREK

Turning to `N[C@@H](CCC(=O)O)C(=O)O` [L-glutamate, L-glutamic acid monosodium salt monohydrate], in the test with EAAT1-3, the Km (usually the concentration of substrate that gives half-maximal velocity) is around 20 µM. For the same compound, in test [1], the “Response in dox-induced vs non-induced cells” value is “not significant”. Also, the EC50 was 251 µM in test [2] (JumpIn-EAAT2, +dox) and 158 µM in test [2] (JumpIn-EAAT2, −dox).
